Source: the NIST ThermoML archive (doi:10.1016/j.jct.2010.07.002)

What was measured:
[1] = xn = mol fraction of the nth substance listed; settings: 101.3 kPa, Liquid, Vibrating tube method
[2] = 101.33 kPa, Liquid, Vibrating tube method
[3] = isobaric coefficient of expansion; settings: 101.33 kPa, Liquid, Vibrating tube densimeter

C[N+](=O)[O-] [nitromethane] + O
mass density [kg/m3], [1]
Settings	278.15 K	288.15 K	298.15 K	308.15 K	318.15 K
x2 = 0.001777	1158.13	1144.64	1131.07	1117.42	1103.68
x2 = 0.002859	1158.06	1144.56	1130.99	1117.35	1103.61
x2 = 0.004913	1157.94	1144.44	1130.87	1117.22	1103.48
x2 = 0.00632	1157.85	1144.35	1130.78	1117.13	1103.39
x2 = 0.008036	1157.74	1144.24	1130.67	1117.02	1103.29
x2 = 0.009712	1157.64	1144.14	1130.57	1116.92	1103.18
x2 = 0.01188	1157.5	1144	1130.43	1116.79	1103.06
x2 = 0.01446	1157.34	1143.85	1130.28	1116.63	1102.9
x2 = 0.01696	1157.19	1143.7	1130.13	1116.49	1102.75
x2 = 0.02033	1156.99	1143.5	1129.93	1116.29	1102.56
x2 = 0.02492	1156.72	1143.23	1129.66	1116.02	1102.3
x2 = 0.02911	1156.49	1143	1129.43	1115.79	1102.07

C[N+](=O)[O-] [nitromethane]
Settings	isobaric coefficient of expansion, 278.15 K	isobaric coefficient of expansion, 288.15 K	isobaric coefficient of expansion, 298.15 K	isobaric coefficient of expansion, 308.15 K	isobaric coefficient of expansion, 318.15 K	mass density, 278.15 K [kg/m3]	mass density, 288.15 K [kg/m3]	mass density, 298.15 K [kg/m3]	mass density, 308.15 K [kg/m3]	mass density, 318.15 K [kg/m3]
[2]	–	–	–	–	–	1158.25	1144.75	1131.18	1117.53	1103.79
[3]	0.00116 1/K	0.00118 1/K	0.0012 1/K	0.00122 1/K	0.00125 1/K	–	–	–	–	–
